Here are results for three compounds from patent US5428019A, “Bombesin analogs” (Merrell Dow Pharmaceuticals Inc., priority 1994, dated 1995).

Read-outs that look alike come from different tables or passages of the source. Where a SMILES comes first, the peptide text is derived from it. [ ]: non-standard residue; d: D form. The star is where a group is joined. Pheψ(CH2S)LeuNH2 = CC(C)C[C@H](SC[C@H](Cc1ccccc1)N*)C(N)=O; X1 = CC(C)C[C@@H](C(N)=O)N(C)C[C@H](Cc1ccccc1)N*; pGlu = O=C1CC[C@@H](C(=O)O)N1

The target of assay [1] is T1, Bombesin Receptor (Mus musculus, UniProt P21729).
T1 construct: Pancreata from mice were chopped at 350 μm with a tissue chopper and pooled; from tissue; host or cells: chopped mouse pancreas
T1 sequence (P21729 whole entry): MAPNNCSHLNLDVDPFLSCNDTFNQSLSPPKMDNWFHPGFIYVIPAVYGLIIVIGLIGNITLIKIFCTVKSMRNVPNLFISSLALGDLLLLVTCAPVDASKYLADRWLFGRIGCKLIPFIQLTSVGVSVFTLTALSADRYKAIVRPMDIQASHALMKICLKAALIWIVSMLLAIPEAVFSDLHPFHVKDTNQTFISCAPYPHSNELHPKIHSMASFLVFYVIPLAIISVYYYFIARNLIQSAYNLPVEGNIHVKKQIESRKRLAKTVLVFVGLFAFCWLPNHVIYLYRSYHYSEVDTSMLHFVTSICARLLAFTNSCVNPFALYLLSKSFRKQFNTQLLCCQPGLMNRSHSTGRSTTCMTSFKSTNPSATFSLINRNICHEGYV
Nature of the assay: Phosphatidylinositol turnover in chopped mouse pancreas. The format is cell-based. The arrangement: key to PI Turnover Agonist: (+) represents agonist activity; (-) indicates no agonist activity. To be noted: for PI Turnover % Inhibition: antagonist activity, referenced to the stimulation produced by 100 nM GRP. As for the experimental part:
Pancreata from mice were chopped at 350 μm with a tissue chopper and pooled. The chopped tissue was washed twice with oxygenated Krebs-Hepes, then incubated for 30 minutes in 37° C. oxygenated Krebs-Hepes buffer with fresh buffer after 15 minutes. The tissue was then incubated in this buffer containing 200 μCi of [^3 H] inositol at 37° C. for 1 hour. The tissue was then washed twice and incubated for another 30 minutes in oxygenated Krebs-Hepes (containing 10 mM Li^+) at 37° C. with a fresh buffer change after 15 minutes. Portions of the tissue mass (approximately 10 mg per assay tube) were then placed in Li^+ buffer with protease inhibitors, (40 μg/ml bacitracin, 4 μg/ml leupeptin, 4 μg/ml chymostatin, 8 μg/ml thiorphan), 0.1% BSA, and 0.1-10 μM peptide in a final volume of 250 μl. After 60 minutes at room temperature, the phosphatidylinositol turnover was terminated by the addition of 940 μl chloroform:methanol (1:2), followed by 310 μl chloroform, followed by 310 μl water. Each tube was then vortexed for 5 seconds and then centrifuged at 2500 x g for 10 minutes to separate the phases. 50 μl of the bottom phase (chloroform) was withdrawn from each tube and placed in a counting vial, dried, and counted in scintillation fluid. 900 μl of the top (aqueous) phase were then mixed with 2.1 ml water and loaded onto a 0.5 ml Biorad AG-1X8 (formate) ion exchange column. The material on the columns was washed in order with: 1) 10 ml of water 2) 5 ml of 5 mM disodium tetraborate/60 mM sodium formate 3) 10 ml of 1 M ammonium formate in 0.1 M formic acid. The final (third) wash was collected and one ml was mixed with 14 ml of Bio-Safe scintillant and counted. The ratio of these counts (total inositol phosphates) to the corresponding organic phase counts (inositol incorporated into the tissue) was then calculated for each sample. The ratios in the presence of test compound and/or standards were then compared to the ratios for control tubes (i.e., no stimulating agonist). The abilities of test compounds to stimulate phosphatidyl-inositol turnover were determined with the aid of a computer program. […] The ordinate (y-axis) indicates the observed PI turnover as a percentage of control. Values are mean±standard error of triplicate determinations.

Assay [2] has as its system cell surface receptors that bind bombesin. To be noted: background section; read-out: KD of high-affinity cell surface receptors that bind bombesin; cited from earlier work.
For assay [3], the target named is T2, bombesin/GRP receptor (Mus musculus, UniProt P21729).
T2 construct: The pancreata from one or more mice were pooled and homogenized; from tissue; host or cells: mouse pancreas membranes
T2 sequence (P21729 whole entry): as above
The assay is described as follows: Competition for 125I-GRP binding to murine pancreatic membranes. As for the experimental part:
The pancreata from one or more mice were pooled and homogenized in 50 mM HEPES (pH 7.4) containing 120 mM NaCl, 5 mM KCl, 1 mM EDTA and protease inhibitors (1 μg/ml aprotinin, leupeptin, pepstatin; 4 μg/ml bacitracin, antipain, bestatin; 100 μM PMSF) at 4° C. and centrifuged at 37,500 X g for 15 minutes. The pellet was resuspended in 50 mM HEPES (pH 7.4) containing 10 mM EDTA, 300 mM KCl, and protease inhibitors, and then incubated for 30 minutes at 4° C. The suspension was centrifuged as above and the pellet was washed two times in 50 mM HEPES (pH 7.4) containing 8 μg/ml thiorphan and protease inhibitors, and again centrifuged. The tissue was then resuspended in incubation buffer (1 ml per 4 mg pancreas) and incubated for 15 minutes at room temperature, then 250 μl were added to each assay tube to commence the assay. […] The assay was allowed to proceed to equilibrium for 90 minutes at room temperature. After this time, the contents of each tube was rapidly filtered over Whatman GF/B filters presoaked in 0.1% polyethyleneimine and the filters were rapidly washed three times with ice-cold 50 mM HEPES (pH 7.4). Filter-bound radioactivity was quantitated in a gamma counter. […] Affinity and maximal binding were calculated with LIGAND (Biosoft, Cambridge, UK) (FIGS. 1 and FIG. 2)
The abscissa (x-axis) logarithmically indicates the concentration of agonists being tested.

Broadly, the Kd is the equilibrium constant for the complex coming apart. As to `CSCC[C@H](NC(=O)[C@H](CC(C)C)NC(=O)[C@H](Cc1cnc[nH]1)NC(=O)CNC(=O)[C@@H](NC(=O)[C@H](C)NC(=O)[C@H](Cc1c[nH]c2ccccc12)NC(=O)[C@H](CCC(N)=O)NC(=O)[C@H](CC(N)=O)NC(=O)CNC(=O)[C@H](CC(C)C)NC(=O)[C@H](CCCN=C(N)N)NC(=O)[C@H](CCC(N)=O)NC(=O)[C@@H]1CCC(=O)N1)C(C)C)C(N)=O` [Bombesin, pGlu--Gln--Arg--Leu--Gly--Asn--Gln--Trp--Ala--Val--Gly--His--Phe--Met--NH2], in assay [1], the “PI Turnover Agonist” value is recorded as “+”. In addition, in assay [2], the Kd was 1 nM.
Consider `CC(C)C[C@@H](C(N)=O)N(C)C[C@H](Cc1ccccc1)NC(=O)[C@H](Cc1c[nH]cn1)NC(=O)CNC(=O)[C@@H](NC(=O)[C@H](C)NC(=O)[C@H](Cc1c[nH]c2ccccc12)NC(=O)[C@H](CCC(N)=O)NC(=O)[C@@H]1CCC(=O)N1)C(C)C` [[Phe^8 .psi.[CH2 N(CH3)]Leu^9]litorin] ([pGlu]QWAVGH-X1), for which the Kd stood at 0.08 nM in assay [3] (duplicate, 20 pM 125I-GRP, two-site fit, read-out: Kd, high affinity class of sites (FIG. 2)); 16 nM in assay [3] (duplicate, 20 pM 125I-GRP, two-site fit, read-out: Kd, low affinity class of sites (FIG. 2)); 0.019 nM in assay [3] (first of two values in the cell, mouse pancreas, averages of multiple experiments, read-out: Kd (nM), high affinity class of sites); 23 nM in assay [3] (second of two values in the cell, mouse pancreas, averages of multiple experiments, read-out: Kd (nM), low affinity class of sites). Also, the “receptors in the high affinity state (FIG. 2)” value in assay [3] (two-site fit, 20 pM 125I-GRP) came to 20%. Further, the “PI Turnover Agonist” value in assay [1] was “+”. Also, in assay [1], the “PI Turnover % Inhibition” value is -16%. For the same compound, the “PI turnover as a percentage of control (FIG. 3)” value in assay [1] (triplicate determinations) is listed as “statistically significant (P<0.005) increase in PI turnover”.
On to `CC(C)C[C@H](NC(=O)[C@H](CCCNC(=N)N)NC(=O)[C@H](CCC(N)=O)NC(=O)[C@@H]1CCC(=O)N1)C(=O)NCC(=O)N[C@@H](CC(N)=O)C(=O)N[C@@H](CCC(N)=O)C(=O)N[C@@H](Cc1c[nH]c2ccccc12)C(=O)N[C@@H](C)C(=O)N[C@H](C(=O)NCC(=O)N[C@@H](Cc1c[nH]cn1)C(=O)N[C@H](CS[C@@H](CC(C)C)C(N)=O)Cc1ccccc1)C(C)C` [[Phe^13 .psi.[CH2 S]Leu^14 bombesin, pGlu--Gln--Arg--Leu--Gly--Asn--Gln--Trp--Ala--Val--Gly--His--Phe.psi.[CH2 S]Leu--NH2] ([pGlu]QRLGNQWAVGH-{Pheψ(CH2S)LeuNH2}), for which the Kd in assay [3] (Kd (nM), competitive binding, mouse pancreas, averages of multiple experiments) amounted to 2.8 nM. Besides, the “PI Turnover % Inhibition” value in assay [1] amounted to 54%.
